The values below come from patent US4634782A, “7-fluoro-dihydro PGI compounds” (Hoffmann-La Roche Inc., priority 1985, dated 1987).

The test system of experiment [1] is cyclic AMP in human platelet rich plasma (PRP). As to the kind of experiment: Cyclic AMP production in human blood platelets (platelet rich plasma), protein binding method of Brown et al. Type of experiment: cell-based. As to conditions: 0.1 mM, percent increase in cyclic AMP compared to basal (vehicle alone), pH 7.4, 22 C, read-out: Cyclic AMP Production, o/o stimulative of Basal at 0.1 mM. The procedure: Cyclic AMP prevents aggregation of blood platelets. Through increasing cyclic AMP, the compounds of this invention prevent blood platelet aggregation. That the compounds of this invention increase cyclic AMP can be seen from the following test.
In this test, human platelet rich plasma (PRP) was prepared by centrifugation of blood treated with 0.38% by weight sodium citrate at 180×g (times gravity) for ten minutes. The PRP ([…] containing approximately 2×10^7 platelets) is incubated for two minutes at 22 C, with and without the test compound, in a Tris-HCl buffer for ten minutes pH 7.4 containing 5.5 mM HCl, 1 mM Mg SO4, 5 mM Na2 H PO4, 120 mM NaCl, and 5.5 mM glucose in a fluid volume of […]. The reaction was terminated by placing the samples in boiling water for 3 minutes. The boiled extract was assayed for cyclic AMP by the protein binding method of Brown et al. (Biochemical Journal 121:561-562, 1971). The activity of this test compound at 0.1 mM is measured as the percent increase in cyclic AMP production compared to base 1 (vehicle alone) production.

In experiment [2] the test system is human platelet rich plasma (PRP). As to the kind of experiment: Inhibition of blood platelet aggregation in human platelet rich plasma (PRP), test of Professor Born, optical density. Type of experiment: cell-based. The following applies: 0.45 ml human PRP, two separate tests, two donors. The procedure:
That the 7-fluoro prostacyclins are potent blood platelet anti-aggregating agents can be seen when the following compounds:
were tested against PGI2 for their blood platelet anti-aggregation properties by the standard test described by Professor Born in Nature, 194 927, (1962).
In this test, the ability of the above compounds to inhibit aggregation of blood platelets in 0.45 ml of human platelet rich plasma (PRP) was measured. Aggregation was induced by the addition of any one of arachidonic acid (AA), platelet activating factor (PAF) or collagen. PAF and its synthesis is disclosed by Hirth and Barner in Helv. Chim. Acta. Vol. 65; Fasc. 3, page 1059 (1982) [Compound 1-a on page 1061]. By titration of AA, collagen and PAF at various concentrations in 0.45 ml samples of PRP, the minimum amount of AA, collagen and PAF which produces maximum blood platelet aggregation in a given sample of human platelet rich plasma (PRP) was determined. This minimum amount was used when the compounds set forth above were tested for their ability to inhibit blood platelet aggregation in samples of PRP as described below.
In carrying out the tests, various concentrations of the test compound were added to separate samples of human platelet rich plasma (PRP). To each of these samples of PRP containing a specific concentration of one of the above test compounds, there was added the minimum amount of AA, PAF, or collagen calculated above. The controls are samples of PRP containing no test compound but only the minimum amount of AA, PAF, or collagen determined above. The percent aggregation of the various samples was determined by measuring the optical density of the samples and comparing them with the optical density of the controls. This determination was made two minutes after the maximum first phase response of PAF, AA or collagen. This determination was made with freshly prepared samples of test compounds. A second determination was made in the same manner with samples of PRP two hours after the addition of AA, PAF or collagen. The IC50, the dose at which the optical density of the samples decrease to a value which is fifty (50%) percent of the value of the control was determined by the method disclosed by Professor Born's article. The IC50 values for the minimum dose were made from concentration response curve. These IC50 's were determined in two separate tests using PRP from two separate donors. The results of the minimum dose of each of the test compounds which reduces fifty (50%) percent of the aggregation of the platelets produced by any one of AA, PAF, or collagen is set forth in the following Table: […]

The mark [3] stands for this setting: Platelet, aggregation induced by minimum amount of arachidonic acid (AA), read-out: Aggregation IC50, AA.
Setting [4] is: aggregation induced by minimum amount of platelet activating factor (PAF), read-out: Aggregation IC50, PAF.
The mark [5] stands for this setting: Platelet, aggregation induced by minimum amount of collagen, read-out: Aggregation IC50, Collagen.

Structures can show the parent of a compound that is named as a salt. Where two headings read alike, the source gives them in different places.

The IC50 is the concentration that inhibits the measured activity by half.

Take `CCCCC[C@H](O)CC[C@@H]1[C@@H]2[C@H](C[C@H]1O)O/C(=C\CCCC(=O)O)[C@H]2F` [Compound A, (5Z,7beta,9alpha,11alpha,15S)-6,9-epoxy-7-fluoro-11,15-dihydroxy-prost-5-en-1-oic acid monosodium salt]: the activation at 100 µM in experiment [1] was found to be 998%. Further, the IC50 in experiment [2] (setting [3]) is 23 nM; in experiment [2] (setting [4]), 15 nM.

For `CCCC[C@H](F)[C@H](O)CC[C@@H]1[C@@H]2[C@H](C[C@H]1O)O/C(=C\CCCC(=O)O)[C@H]2F` [Compound B, (5Z,7beta,9alpha,11alpha,15R,16S)-6,9-epoxy-7,16-difluoro-11,15-dihydroxy-prost-5-en-1-oic acid monosodium salt], the IC50 came out at 20 nM in experiment [2] (setting [3]), 6 nM in experiment [2] (setting [5]) and 6 nM in experiment [2] (setting [4]).

On to `CCCCC[C@H](O)/C=C/[C@@H]1[C@H]2C/C(=C/CCCC(=O)O)O[C@H]2C[C@H]1O` [PGI2, reference compound], for which the IC50 came to 0.45 nM in experiment [2] (setting [3]), 2 nM in experiment [2] (setting [5]) and 0.15 nM in experiment [2] (setting [4]).
